Reference: patent US8431564B2 (Merck Sharp & Dohme B.V., priority 2009, dated 2013)

biological target: T1, human FSH receptor (Homo sapiens, UniProt P23945); test: Agonistic activity at the human FSH receptor expressed in CHO cells (CRE-luciferase reporter); format: cell-based; settings: CHO cells stably transfected with human FSH receptor and CRE/luciferase reporter; 4 hours incubation; pEC50 is -log EC50; read-out: hFSHRago (CHO luc) pEC50 (converted)
T1 construct: expressed in transfected cells; host or cells: CHO (Chinese Hamster Ovary) cells, stably transfected, cotransfected with CRE-luciferase reporter
T1 sequence (P23945 18-695): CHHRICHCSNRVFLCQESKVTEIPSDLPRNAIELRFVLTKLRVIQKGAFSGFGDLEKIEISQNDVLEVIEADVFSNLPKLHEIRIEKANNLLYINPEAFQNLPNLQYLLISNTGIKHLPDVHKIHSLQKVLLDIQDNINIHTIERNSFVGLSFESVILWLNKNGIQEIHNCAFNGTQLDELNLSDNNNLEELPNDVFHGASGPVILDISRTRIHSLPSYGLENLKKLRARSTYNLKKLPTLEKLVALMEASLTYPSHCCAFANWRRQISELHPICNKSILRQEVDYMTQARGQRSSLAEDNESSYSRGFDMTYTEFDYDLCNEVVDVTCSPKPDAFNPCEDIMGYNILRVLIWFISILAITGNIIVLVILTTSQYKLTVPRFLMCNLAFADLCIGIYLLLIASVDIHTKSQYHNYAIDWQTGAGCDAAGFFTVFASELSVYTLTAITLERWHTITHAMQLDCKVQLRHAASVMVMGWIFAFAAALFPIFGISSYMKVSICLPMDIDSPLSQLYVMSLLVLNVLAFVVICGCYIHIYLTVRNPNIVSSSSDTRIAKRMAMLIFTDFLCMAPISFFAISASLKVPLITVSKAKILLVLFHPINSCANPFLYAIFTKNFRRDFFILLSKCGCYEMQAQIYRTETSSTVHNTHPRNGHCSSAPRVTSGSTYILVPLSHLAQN
Description: The term EC50 means the concentration of the test compound that elicits half-maximal (50%) stimulation compared to the compound's maximally attainable effect. pEC50 is the negative log of EC50. The values can be determined e.g. in a cell line transfected with a FSH receptor gene and cotransfected with a cAMP responsive element/promoter directing the expression of a reporter gene. For the determination a software program such as MathIQ (version 2.0, ID Business Solutions Limited) can be used.
Agonistic activity of the compounds at the human FSH receptor was determined in Chinese Hamster Ovary (CHO) cells stably transfected with the human FSH receptor and cotransfected with a cAMP responsive element (CRE)/promotor directing the expression of a firefly luciferase reporter gene. Binding of the compounds to the Gs protein-coupled FSH receptor will result in an increase of cAMP, which in turn will induce an increased transactivation of the luciferase reporter. Cells (7,500 cells/well of a 384 well plate) were incubated in Dulbecco' minimal essential F12 modified medium (Invitrogen), supplemented with 1 μg/ml bovine insulin, 5 μg/ml human apo-transferrin, 80 U/ml penicillin G and 80 μg/ml streptomycin with the test compounds (concentration between 0.0316 nM and 10.0 μM) in duplicate in a humidified atmosphere (95%) at 5-7% CO2 and 37° C. The final concentration of DMSO was 1%. After 4 hours of incubation, plates were allowed to adjust to room temperature for 1 hour. Then, Luclite (PerkinElmer) solution was added to the wells and cells were allowed to lyse for at least 1 hour at room temperature. Subsequently, luciferase activity was measured in a luminescence counter. The signal is expressed as counts per second (cps). The EC50 (concentration of the test compound that elicits half-maximal (50%) luciferase stimulation compared to the compound's maximally attainable effect) and efficacy values (maximal effect of the test compound as percentage of the maximal effect of recombinant human FSH) of the compounds were determined using the software program MathIQ (version 2.0, ID Business Solutions Limited). pEC50 data (pEC50 is −log EC50) are indicated at the synthesis examples.

`COc1cc2c(cc1-n1cc(C[C@H](O)CO)nn1)-c1c(-c3cccs3)c3c(n1CC2)C(=O)N(C(C)(C)C)CCCC3` [Compound 20f, (S)-9-tert-butyl-14-(thien-2-yl)-2-(4-(2,3-dihydroxypropyl)-1H-1,2,3-triazol-1-yl)-3-methoxy-5,6,10,11,12,13-hexahydroazocino[4′,3′:4,5]pyrrolo[2,1-a]isoquinolin-8(9H)-one] and `COc1cc2c(cc1-n1cc(C[C@@H](O)CO)nn1)-c1c(-c3cccs3)c3c(n1CC2)C(=O)N(C(C)(C)C)CCCC3` [Compound 20g, (R)-9-tert-butyl-14-(thien-2-yl)-2-(4-(2,3-dihydroxypropyl)-1H-1,2,3-triazol-1-yl)-3-methoxy-5,6,10,11,12,13-hexahydroazocino[4′,3′:4,5]pyrrolo[2,1-a]isoquinolin-8(9H)-one] are within 1.5-fold of each other in EC50: 4.07 nM for the first, 3.24 nM for the second.

First: COc1cc2c(cc1C#N)-c1c(-c3cccs3)c3c(n1CC2)C(=O)N(C(C)(C)C)CCCC3 [Compound 20h, 9-tert-butyl-14-(thien-2-yl)-3-methoxy-5,6,10,11,12,13-hexahydroazocino[4′,3′:4,5]pyrrolo[2,1-a]isoquinolin-8(9H)-one-2-carbonitrile]
Second: COc1cc2c(cc1C(=O)O)-c1c(-c3cccs3)c3c(n1CC2)C(=O)N(C(C)(C)C)CCCC3 [Compound 26b, 9-tert-butyl-3-methoxy-14-(thiophen-2-yl)-5,6,10,11,12,13-hexahydroazocino[4′,3′:4,5]pyrrolo[2,1-a]isoquinolin-8(9H)-one-2-carboxylic acid]
The EC50 of the first is 25-fold lower: 1.78 nM for the first, 44.7 nM for the second.

First: COc1cc2c(cc1[C@H](O)[C@@H](O)CO)-c1c(-c3cccs3)c3c(n1CC2)C(=O)N(C(C)(C)C)CCCC3 [Compound 21h, (1S,2S)-1-(9-tert-butyl-14-(thien-2-yl)-3-methoxy-5,6,10,11,12,13-hexahydroazocino[4′,3′:4,5]pyrrolo[2,1-a]isoquinolin-8(9H)-on-2-yl)propane-1,2,3-triol]
Second: COc1cc2c(cc1CCCO)-c1c(-c3cccs3)c3c(n1CC2)C(=O)N(C(C)(C)C)CCCC3 [Compound 21j, 3-(9-tert-butyl-14-(thien-2-yl)-3-methoxy-5,6,10,11,12,13-hexahydroazocino[4′,3′:4,5]pyrrolo[2,1-a]isoquinolin-8(9H)-on-2-yl)propan-1-ol]
The EC50 of the first is 22-fold higher: 5.5 nM for the first, 0.251 nM for the second.

First: COc1cc2c(cc1NC(=O)CN(C)C)-c1c(-c3cccs3)c3c(n1CC2)C(=O)N(C(C)(C)C)CCCC3 [Compound 22b, 2-dimethylamino-N-(9-tert-butyl-14-(thien-2-yl)-3-methoxy-5,6,10,11,12,13-hexahydroazocino[4′,3′:4,5]pyrrolo[2,1-a]isoquinolin-8(9H)-on-2-yl)acetamide]
Second: COc1cc2c(cc1NC(=O)CN1CC(O)C1)-c1c(-c3cccs3)c3c(n1CC2)C(=O)N(C(C)(C)C)CCCC3 [Compound 22c, 2-(3-hydroxyazetidin-1-yl)-N-(9-tert-butyl-14-(thien-2-yl)-3-methoxy-5,6,10,11,12,13-hexahydroazocino[4′,3′:4,5]pyrrolo[2,1-a]isoquinolin-8(9H)-on-2-yl)acetamide]
The EC50 of the first is 3.7-fold higher: 4.68 nM for the first, 1.26 nM for the second.

Going from `CCN1CCN(CC(=O)Nc2cc3c(cc2OC)CCn2c4c(c(-c5cccs5)c2-3)CCCCN(C(C)(C)C)C4=O)CC1` [Compound 22d, 2-(4-ethylpiperazin-1-yl)-N-(9-tert-butyl-14-(thien-2-yl)-3-methoxy-5,6,10,11,12,13-hexahydroazocino[4′,3′:4,5]pyrrolo[2,1-a]isoquinolin-8(9H)-on-2-yl)acetamide] to `COc1cc2c(cc1C(=O)NCCN1CCOCC1)-c1c(-c3cccs3)c3c(n1CC2)C(=O)N(C(C)(C)C)CCCC3` [Compound 26c1, 9-tert-butyl-3-methoxy-N^2-(2-morpholinoethyl)-14-(thiophen-2-yl)-5,6,10,11,12,13-hexahydroazocino[4′,3′:4,5]pyrrolo[2,1-a]isoquinolin-8(9H)-one-2-carboxamide], the EC50 falls from 3.31 nM to 1.78 nM (1.9-fold).

First: CC[S+]([O-])c1cc2c(cc1OC)CCn1c3c(c(Br)c1-2)CCCCN(C(C)(C)C)C3=O (centres unmarked) [Compound 23d, 9-tert-butyl-14-bromo-2-ethylsulfinyl-3-methoxy-5,6,10,11,12,13-hexahydroazocino[4′,3′:4,5]pyrrolo[2,1-a]isoquinolin-8(9H)-one]
Second: CCS(=O)(=O)c1cc2c(cc1OC)CCn1c3c(c(Br)c1-2)CCCCN(C(C)(C)C)C3=O [Compound 23e, 9-tert-butyl-14-bromo-2-ethylsulfonyl-3-methoxy-5,6,10,11,12,13-hexahydroazocino[4′,3′:4,5]pyrrolo[2,1-a]isoquinolin-8(9H)-one]
The EC50 of the first is 1.6-fold higher: 245 nM for the first, 155 nM for the second.

First: CCS(=O)(=O)c1cc2c(cc1OC)CCn1c3c(c(-c4cccs4)c1-2)CCCCN(C(C)(C)C)C3=O [Compound 23f, 9-tert-butyl-14-(thien-2-yl)-2-ethylsulfonyl-3-methoxy-5,6,10,11,12,13-hexahydroazocino[4′,3′:4,5]pyrrolo[2,1-a]isoquinolin-8(9H)-one]
Second: CCS(=O)(=O)c1cc2c(cc1OC)CCn1c3c(c(-c4cncs4)c1-2)CCCCN(C(C)(C)C)C3=O [Compound 23g, 9-tert-butyl-14-(thiazol-5-yl)-2-ethylsulfonyl-3-methoxy-5,6,10,11,12,13-hexahydroazocino[4′,3′:4,5]pyrrolo[2,1-a]isoquinolin-8(9H)-one]
The EC50 of the first is 5.9-fold lower: 1.82 nM for the first, 10.7 nM for the second.

Going from `COc1cc2c(cc1-c1cccnc1)-c1c(-c3cccs3)c3c(n1CC2)C(=O)N(C(C)(C)C)CCC(C)(C)C3` [Compound 24k, 9-tert-butyl-12,12-dimethyl-3-methoxy-2-pyridin-3-yl-14-(2-thienyl)-5,6,10,11,12,13-hexahydroazocino[4′,3′:4,5]pyrrolo[2,1-a]isoquinolin-8(9H)-one] to `COc1cc2c(cc1-c1cccnc1)-c1c(C3=CCSCC3)c3c(n1CC2)C(=O)N(C(C)(C)C)CCCC3` [Compound 25d, 9-tert-butyl-2-(3-pyridyl)-14-(3,6-dihydro-2H-thiopyran-4-yl)-3-methoxy-5,6,10,11,12,13-hexahydroazocino[4′,3′:4,5]pyrrolo[2,1-a]isoquinolin-8(9H)-one], the EC50 falls from 389 nM to 10.7 nM (36-fold).

First: COc1cc2c(cc1-c1cccnc1)-c1c(C3=CCOCC3)c3c(n1CC2)C(=O)N(C(C)(C)C)CCCC3 [Compound 25c, 9-tert-butyl-2-(3-pyridyl)-14-(3,6-dihydro-2H-pyran-4-yl)-3-methoxy-5,6,10,11,12,13-hexahydroazocino[4′,3′:4,5]pyrrolo[2,1-a]isoquinolin-8(9H)-one]
Second: COC(=O)c1cc2c(cc1OC)CCn1c3c(c(-c4cccs4)c1-2)CCCCN(C(C)(C)C)C3=O [Compound 26a, methyl 9-tert-butyl-3-methoxy-14-(thiophen-2-yl)-5,6,10,11,12,13-hexahydroazocino[4′,3′:4,5]pyrrolo[2,1-a]isoquinolin-8(9H)-one-2-carboxylate]
The EC50 of the first is 6.3-fold higher: 6.31 nM for the first, 1 nM for the second.

`COC(=O)[C@@H]1CCCN1C(=O)c1cc2c(cc1OC)CCn1c3c(c(-c4cccs4)c1-2)CCCCN(C(C)(C)C)C3=O` [Compound 26c2, (S)-9-tert-butyl-3-methoxy-14-(thiophen-2-yl)-5,6,10,11,12,13-hexahydroazocino[4′,3′:4,5]pyrrolo[2,1-a]isoquinolin-8(9H)-one-2-carbonyl(1-pyrrolidinyl-2-carboxylate) methyl ester] and `COc1cc2c(cc1C(=O)N1CCC[C@H]1CO)-c1c(-c3cccs3)c3c(n1CC2)C(=O)N(C(C)(C)C)CCCC3` [Compound 26c3, (S)-9-tert-butyl-3-methoxy-2-(2-hydroxymethyl-1-pyrrolidinylcarbonyl)-14-(thiophen-2-yl)-5,6,10,11,12,13-hexahydroazocino[4′,3′:4,5]pyrrolo[2,1-a]isoquinolin-8(9H)-one] are within 1.5-fold of each other in EC50: 37.2 nM for the first, 27.5 nM for the second.
